The values that follow come from patent US12552790B2, “Positive modulators of the muscarinic acetylcholine receptor M4” (Vanderbilt University, priority 2023, dated 2026).

The target of one experiment is T1, Human M2 (Homo sapiens, UniProt P08172).
T1 construct: expressed in transfected cells; host or cells: CHO-K1
T1 sequence (P08172 1-466): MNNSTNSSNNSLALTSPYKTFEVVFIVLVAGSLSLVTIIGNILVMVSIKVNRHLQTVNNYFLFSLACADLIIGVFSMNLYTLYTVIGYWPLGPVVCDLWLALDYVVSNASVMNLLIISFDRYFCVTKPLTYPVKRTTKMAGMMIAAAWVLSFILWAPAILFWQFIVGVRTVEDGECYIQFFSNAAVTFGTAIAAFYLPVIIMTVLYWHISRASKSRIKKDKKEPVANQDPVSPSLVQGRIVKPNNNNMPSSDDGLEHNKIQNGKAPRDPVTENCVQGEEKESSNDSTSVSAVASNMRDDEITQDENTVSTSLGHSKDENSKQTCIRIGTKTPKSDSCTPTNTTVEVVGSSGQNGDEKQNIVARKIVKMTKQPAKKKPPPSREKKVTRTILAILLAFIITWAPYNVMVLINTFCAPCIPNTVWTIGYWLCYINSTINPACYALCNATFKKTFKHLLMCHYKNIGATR
The experiment can be described thus: M2 cell-based functional assay, calcium mobilization (selectivity). The conditions noted are these: for Emax at 30 µM: % ACh maximum at 30 μM; for EC50 / Human M2 EC50: M2 cell-based functional assay, calcium flux. The protocol:
(§1) The high throughput assay was employed to measure receptor-induced mobilization of intracellular calcium to determine compound activity. Test compound was added to cells expressing the muscarinic receptors that were loaded with calcium sensitive fluorescent dye. After a ˜2.5 minute incubation period, a submaximal (EC20) concentration of acetylcholine was added, and the response measured. This kinetic assay allows for simultaneous screening and potency determination of multiple pharmacological modes of action including agonist and potentiator activity. CHO-K1 cells stably expressing muscarinic receptors were plated in growth medium lacking G418 and hygromycin at 15,000 cells/20 μL/well in Greiner 384-well black-walled, tissue culture (TC)-treated, clear-bottom plates (Greiner Bio-One). Cells were incubated overnight at 37° C. and 5% CO2. The next day, calcium assay buffer (Hank's balanced salt solution (HBSS), 20 mM HEPES, 2.5 mM Probenecid, 4.16 mM sodium bicarbonate (Sigma-Aldrich, St. Louis, MO)) was prepared to dilute compounds, agonists, and Fluo-4-acetomethoxyester (Fluo-4-AM), fluorescent calcium indicator dye. Compounds were serially diluted 1:3 into 10 point concentration response curves in DMSO using the Bravo Liquid Handler (Agilent, Santa Clara, CA), transferred to a 384 well daughter plates using an Echo acoustic liquid handler (Beckman Coulter, Indianapolis, Indiana), and diluted in assay Buffer to a 2× final concentration. The agonist plates were prepared using acetylcholine (ACh, Sigma-Aldrich, St. Louis, MO) concentrations for the EC20 and ECMAX responses by diluting in assay buffer to a 5× final concentration. The 2× dye solution (2.3 μM) was prepared by mixing a 2.3 mM Fluo-4-AM stock in DMSO with 10% (w/v) pluronic acid F-127 in a 1:1 ratio in assay buffer. Using a microplate washer (BioTek, Winooski, VT), cells were washed with assay buffer for 3 times to remove medium. After the final wash, 20 μL of assay buffer remained in the cell plates. Immediately, 20 μL of the 2× dye solution (final 1.15 μM) was added to each well of the cell plate using a Multidrop Combi dispenser (Thermo Fisher, Waltham, MA). After cells were incubated with the dye solutions for 45 min at 37° C. in the presence of 5% CO2, the dye solutions were removed and replaced with assay buffer using a microplate washer, leaving 20 μL of assay buffer in the cell plate.
The prepared compound, agonist, and cell plates were placed inside the Functional Drug Screening System uCell (FDSS uCell, Hamamatsu, Japan) to measure the calcium flux. The triple add protocol was used to measure Ca kinetics; Compound, ACh for EC20, and ACh for EC80 adds in an order. Briefly, after establishment of a fluorescence baseline for 2 seconds (excitation, 480 nm; emission, 530 nm), first add occurred by adding 20 μL of test compound to the cells, and the response was measured for 140 seconds. This is followed by second add; 10 μL (5×) of an EC20 concentration of ACh agonist was added to the cells, and the response of the cells was measured for 125 seconds. Immediately, the third add occurred by adding […] (5×) of an EC80 concentration of ACh and the response of the cells was measured for 90 seconds. Acetylcholine-mediated maximum response (ECmax) was measured by adding 1 mM ACh as third add in the control wells. DMSO vehicle was added to the control wells in the first add for assessing ACh EC20, EC80, and ECmax responses. Calcium fluorescence was recorded as fold over basal fluorescence and raw data were normalized to the maximal response to ACh agonist. Agonist activity was analyzed as a concentration-dependent increase in calcium mobilization upon compound addition. Positive allosteric modulator activity was analyzed as a concentration-dependent increase in the EC20 acetylcholine response. Antagonist activity was analyzed as a concentration-dependent decrease in the EC80 acetylcholine response. […]
A general note: A change in cytosolic calcium serves as a functional read-out for many receptors and channels.

For a further experiment, the target named is T2, Human M4 (Homo sapiens, UniProt P08173).
T2 construct: expressed in transfected cells
T2 sequence (P08173 1-479): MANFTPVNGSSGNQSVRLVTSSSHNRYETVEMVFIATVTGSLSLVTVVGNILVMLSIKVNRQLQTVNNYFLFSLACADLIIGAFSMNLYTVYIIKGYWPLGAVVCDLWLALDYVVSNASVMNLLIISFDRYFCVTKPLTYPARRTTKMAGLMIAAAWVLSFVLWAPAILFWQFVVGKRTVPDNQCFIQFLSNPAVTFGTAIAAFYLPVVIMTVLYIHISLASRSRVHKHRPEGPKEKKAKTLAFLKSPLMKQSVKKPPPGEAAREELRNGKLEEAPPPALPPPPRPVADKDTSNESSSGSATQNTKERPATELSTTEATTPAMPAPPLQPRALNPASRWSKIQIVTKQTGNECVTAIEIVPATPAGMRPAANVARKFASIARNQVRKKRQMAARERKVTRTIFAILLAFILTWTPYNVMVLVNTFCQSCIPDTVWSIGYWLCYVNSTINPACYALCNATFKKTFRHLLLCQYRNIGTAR
As to the kind of experiment: M4 cell-based functional assay, calcium mobilization, potentiation of ACh EC20. The conditions noted are these: for Emax at 30 µM: % ACh maximum at 30 μM; for EC50: CHO-K1 hM4-Gqi5 cells, calcium flux, ACh EC20. The protocol:
Human and rat M4 cDNAs, along with the chimeric G protein Gqi5, were transfected into Chinese hamster ovary (CHO-K1) cells purchased from the American Type Culture Collection using Lipofectamine2000. The transfected cells were subjected to selection antbiotic treatment to generate stable cell lines; G418 sulfate (1 mg/ml) for selecting M4 expressing cells and Hygromycin B (500 μg/mL) for selecting Gqi5 expressing cells. The resulting polyclones were further screened to obtain monoclones of hM4-Gqi5 and rM4-Gqi5 for compound screening assay. Stable monoclone cells were maintained in Ham's F-12 medium containing 10% heat-inactivated fetal bovine serum (FBS), 1× Antibiotic/Antimycotic, 20 mM HEPES, 500 μg/mL G418 sulfate, and 200 μg/mL Hygromycin B in 37° C. humidified incubators in the presence of 5% CO2.
as §1
The prepared compound, agonist, and cell plates were placed inside the Functional Drug Screening System uCell (FDSS uCell, Hamamatsu, Japan) to measure the calcium flux. The triple add protocol was used to measure Ca kinetics; Compound, ACh for EC20, and ACh for EC80 adds in an order. Briefly, after establishment of a fluorescence baseline for 2 seconds (excitation, 480 nm; emission, 530 nm), first add occurred by adding 20 μL of test compound to the cells, and the response was measured for 140 seconds. This is followed by second add; 10 μL (5×) of an EC20 concentration of ACh agonist was added to the cells, and the response of the cells was measured for 125 seconds. […]

Regarding `[2H]C1([2H])Oc2ccc(OC3CCN(c4nc5nn(C)c(=O)n5c5c4CCC5)CC3)cc2OC1([2H])[2H]` [Compound A14, 5-(4-((2,3-dihydrobenzo[b][1,4]dioxin-6-yl-2,2,3,3-d4)oxy)piperidin-1-yl)-2-methyl-2,6,7,8-tetrahydro-1H-cyclopenta[e][1,2,4]triazolo[4,3-a]pyrimidin-1-one], at Human M2, the maximal effect (Emax) (in general, the greatest response seen or fitted, relative to the assay's reference) at 30 µM was 60% and the half-maximal effective concentration (EC50) (commonly the concentration giving half of the maximal effect) came out at 2230 nM. In addition, at Human M4, the maximum response (Emax) at 30 µM is 84% and the concentration giving a half-maximal response (EC50) amounted to 3 nM.

As to `[2H]C1([2H])Oc2ccc(OC3CCN(c4nc5nn(CC6CN(C)CCO6)c(=O)n5cc4C)CC3)cc2OC1([2H])[2H]` (stereo not shown) [Compound A8, 7-(4-((2,3-dihydrobenzo[b][1,4]dioxin-6-yl-2,2,3,3-d4)oxy)piperidin-1-yl)-6-methyl-2-((4-methylmorpholin-2-yl)methyl)-[1,2,4]triazolo[4,3-a]pyrimidin-3(2H)-one], the “Human M2 EC50” value on Human M2 was “Inactive”. On Human M4, the Emax at 30 µM turned out to be 95% and the EC50 was found to be 48 nM.

Turning to `[2H]C1([2H])Oc2ccc(O[C@H]3CCN(c4nc5c(cc4C)C(=O)NC5)[C@H](C)C3)cc2OC1([2H])[2H]` [Compound 4, 2-((2R,4S)-4-((2,3-dihydrobenzo[b][1,4]dioxin-6-yl-2,2,3,3-d4)oxy)-2-methylpiperidin-1-yl)-3-methyl-6,7-dihydro-5H-pyrrolo[3,4-b]pyridin-5-one], at Human M2, the maximal response (Emax) at 30 µM amounted to 57% and the EC50 was determined as 5870 nM. At Human M4, the maximal response (Emax) at 30 µM is 85% and the EC50 worked out at 11 nM.

As for `[2H]C1([2H])Oc2ccc(OC3CCN(c4nc5c(cc4C)C(=O)N(C)C5)CC3)cc2OC1([2H])[2H]` [Compound 5, 2-(4-((2,3-dihydrobenzo[b][1,4]dioxin-6-yl-2,2,3,3-d4)oxy)piperidin-1-yl)-3,6-dimethyl-6,7-dihydro-5H-pyrrolo[3,4-b]pyridin-5-one], on Human M2, the maximum response (Emax) at 30 µM was found to be 70% and the EC50 turned out to be 219 nM. Moreover, on Human M4, the maximal response (Emax) at 30 µM was 76% and the EC50 came out at 4 nM.

As to `[2H]C1([2H])Oc2ccc(OC3CCN(c4nc5c(cc4C)C(=O)OC5C)CC3)cc2OC1([2H])[2H]` (stereo not shown) [Compound 9, 2-(4-((2,3-dihydrobenzo[b][1,4]dioxin-6-yl-2,2,3,3-d4)oxy)piperidin-1-yl)-3,7-dimethylfuro[3,4-b]pyridin-5(7H)-one], on Human M2, the maximum response (Emax) at 30 µM was 57% and the 50% effective concentration (EC50) is 2240 nM. Moreover, on Human M4, the maximal response (Emax) at 30 µM was found to be 91% and the concentration for a half-maximal effect (EC50) is 27 nM.

Take `[2H]C1(Oc2ccc3c(c2)OC([2H])([2H])C([2H])([2H])O3)CCN(c2nc3c(cc2C)C(=O)NC3)CC1` [Compound 1, 2-(4-((2,3-dihydrobenzo[b][1,4]dioxin-6-yl-2,2,3,3-d4)oxy)piperidin-1-yl-4-d)-3-methyl-6,7-dihydro-5H-pyrrolo[3,4-b]pyridin-5-one]: on Human M2, the maximal effect (Emax) at 30 µM turned out to be 69% and the EC50 is 346 nM. Moreover, on Human M4, the maximal effect (Emax) at 30 µM amounted to 108% and the EC50 turned out to be 3 nM.

Turning to `[2H]C1([2H])Oc2ccc(OC3CCN(c4nc5n[nH]c(=O)n5c5c4CCCC5)CC3)cc2OC1([2H])[2H]` [Compound A17, 5-(4-((2,3-dihydrobenzo[b][1,4]dioxin-6-yl-2,2,3,3-d4)oxy)piperidin-1-yl)-6,7,8,9-tetrahydro-[1,2,4]triazolo[4,3-a]quinazolin-1(2H)-one], the “Human M2 EC50” value at Human M2 is given as “Inactive”. Further, at Human M4, the maximal effect (Emax) at 30 µM turned out to be 87% and the EC50 came to 64 nM.

In the case of `[2H]C1([2H])Oc2ccc(OC3CCN(c4nc5c(c(C)c4C)C(=O)NC5)CC3)cc2OC1([2H])[2H]` [Compound 13, 2-(4-((2,3-dihydrobenzo[b][1,4]dioxin-6-yl-2,2,3,3-d4)oxy)piperidin-1-yl)-3,4-dimethyl-6,7-dihydro-5H-pyrrolo[3,4-b]pyridin-5-one], the “Human M2 EC50” value at Human M2 is “inactive”. Besides, on Human M4, the Emax at 30 µM amounted to 101% and the 50% effective concentration (EC50) is 4 nM.

As to `[2H]C1([2H])CC(Oc2ccc3c(c2)OCCO3)CC([2H])([2H])N1c1nc2c(cc1C)C(=O)NC2` [Compound 11, 2-(4-((2,3-dihydrobenzo[b][1,4]dioxin-6-yl)oxy)piperidin-1-yl-2,2,6,6-d4)-3-methyl-6,7-dihydro-5H-pyrrolo[3,4-b]pyridin-5-one], at Human M2, the maximum response (Emax) at 30 µM worked out at 60% and the EC50 stood at 508 nM. On Human M4, the maximal effect (Emax) at 30 µM turned out to be 73% and the half-maximal effective concentration (EC50) stood at 5 nM.

On to `[2H]C1([2H])Oc2ccc(OC3CCN(c4nc5nn([C@@H]6CCOC6)c(=O)n5cc4C)CC3)cc2OC1([2H])[2H]` [Compound A4, (R)-7-(4-((2,3-dihydrobenzo[b][1,4]dioxin-6-yl-2,2,3,3-d4)oxy)piperidin-1-yl)-6-methyl-2-(tetrahydrofuran-3-yl)-[1,2,4]triazolo[4,3-a]pyrimidin-3(2H)-one], for which, on Human M2, the Emax at 30 µM turned out to be 68% and the half-maximal effective concentration (EC50) was found to be 1380 nM. Moreover, on Human M4, the maximal response (Emax) at 30 µM worked out at 88% and the EC50 worked out at 9 nM.
